Measured values published in US10934577B2, “Assays for resistance to echinocandin-class drugs” (priority 2005, dated 2021).

Tests used:
[1] = tested on: C. albicans strains CAI4 and M70, laboratory-derived isolates with reduced susceptibility; test: In vitro caspofungin susceptibility testing, liquid microbroth dilution assay in RPMI-1640 (NCCLS M27-A2); type: cell-based; conditions: Candida albicans; all laboratory-derived isolates (35 from CAI4, 50 from M70) selected on 4 μg/ml caspofungin
Procedure: (§1) Spontaneous mutants of C. albicans strains CAI4 and M70 resistant to caspofungin were isolated by direct selection on solid growth media containing 4 μg/ml (forty times the MIC) caspofungin. The frequency of formation of spontaneous caspofungin-resistant derivatives for both strains was <10^−8 mutants per viable cell. For both strains, the formation of rare shrunken slow-growing colonies on the plates with caspofungin was observed. […] After prolonged incubation for more than 10 days, a small fraction of small shrunken colonies gave rise to smooth fast-growing derivatives which were able to propagate on caspofungin-containing media after reinoculation. Only one such derivative per individual plate/culture was saved and used for further analysis. In total, 35 and 50 isolates with reduced susceptibility to caspofungin were isolated for strains CAI4 and M70, respectively. […] Details of the isolation procedure are set forth in Example 2.
C. albicans strain CAI4 was purchased from ATCC (ATCC, Manassas, Va.). C. albicans strain M70 was from the Merck culture collection (MRL, Rahway, N.J.). Strains were grown on yeast extract-peptone-dextrose (YPD) medium (1% yeast extract, 2% Bacto Peptone, 2% dextrose). For growth of strain CAI4, YPD medium was supplemented by uridine (Sigma-Aldrich, St. Louis, Mo.) at 25 mg/ml. Caspofungin (Merck, Rahway, N.J.) was added directly to YPD at 4 μg/ml. […]

[2] = tested on: C. albicans strains CAI4 and M70; test: Isolation of spontaneous caspofungin-resistant mutants by direct selection on solid media containing caspofungin; type: cell-based, Candida albicans; conditions: both strains CAI4 and M70; YPD plates with 4 μg/ml caspofungin (forty times the MIC)
Procedure: as §1
Spontaneous caspofungin-resistant mutants of C. albicans strains CAI4 and M70 were isolated by plating 100 ul (˜10^8 cells) of an 18 h liquid YPD culture on YPD plates containing 4 μg/ml caspofungin. Serial dilutions of the overnight cultures were plated on the YPD plates without antibiotic selection to precisely determine starting colony counts. Selection plates were incubated for 10-14 days at 30° C. […]

`CC[C@H](C)C[C@H](C)CCCCCCCCC(=O)N[C@H]1C[C@@H](O)[C@@H](NCCN)NC(=O)[C@@H]2[C@@H](O)CCN2C(=O)[C@H]([C@H](O)CCN)NC(=O)[C@H]([C@H](O)[C@@H](O)c2ccc(O)cc2)NC(=O)[C@@H]2C[C@@H](O)CN2C(=O)[C@H]([C@@H](C)O)NC1=O` [caspofungin] was tested, and the MIC [1] was > 16 µg/mL and the “frequency of formation of spontaneous caspofungin-resistant derivatives” value [2] was < 10^−8 mutants per viable cell.
